Data published in US5994361A, “Substituted purinyl derivatives with immunomodulating activity” (priority 1995, dated 1999).
Read-outs that look alike come from different tables or passages of the source.

Columns and labels:
[1] = system: cytotoxic T lymphocytes, P815 target cells; assay: Cytotoxic T lymphocytes (CTL) assay; type: cell-based, C57B1/6 mice and DBA/2 mice; settings: for activation at 0.1 µM / activation at 0.001 µM / activation at 10 µM: Mus musculus, P815, 120 h, read-out: CTL activity, % increase compared to IL2 (100%); for activation at 0.001 µM: at 10^-9 M; for activation at 10 µM: at 10^-5 M
Experimental: (§1) Mixed lymphocyte reaction is an in vitro counterpart of the allograft rejection. Briefly, T cell response was obtained when cells taken from two inbred strains from two outbred individuals of any species were mixed in vitro in culture.
(§2) After 4 days incubation, ^3 H thymidine uptake and cytotoxicity assay (CTL) were performed.
(§3) 3 C57B1/6 mice and 3 DBA/2 mice wre killed and lymphocytes prepared using lympholyte M. The cell concentration was adjusted to 10×10^6 cell/ml for each lysis. DBA/2 cells were irradiated with 3000 Rads. 1 ml of the C57 cells+1 ml of the DBA/2 cells+1 ml of the drug at 3 different concentrations were incubated together for 5 days. Positive control was IL-2 at 15 ng/ml final. After 5 days, the CTL and MLR tests were carried out.
P815 target cells were labelled with Cr^51. After labelling, the cells were resuspended to 5×10^4 cells/ml.
100 μl of target cells+100 μl Of T cells were incubated for 4 hrs and then 100 μl of supernatant was counted using a gamma counter.

[2] = system: T cell response (mixed lymphocyte reaction); assay: Mixed lymphocyte reaction (MLR) assay; type: cell-based, C57B1/6 mice and DBA/2 mice
Experimental: as §1, §2, §3
The cells were resuspended and 100 μl of cell suspension were deposited in each of the 96 wells in the plate, 50 μl of Thymidine at 20 μCi/ml was added for 6 hrs. The cells were then collected and counted using a beta counter.

immune system = settings: prior art; cited from earlier work
[3] = system: T cell activity (ConA), spleen mononuclear leukocytes; assay: Mitogenic proliferation on spleen cell suspension, T (ConA); type: cell-based, C57BL-6 mice
Description: (§4) Mitogenic lectin (mitogen) is a protein which binds and cross-links specific cells surface carbohydrate determinants, and will polyclonally stimulate lymphoid cells. Lymphocyte activation by either antigens or mitogens results in intracellular changes and the subsequent development into a lymphoblast. Mitogenic stimulation of lymphocytes in vitro is believed to mimic the series of events which occur in vivo following their stimulation by specific antigens. PHA, ConA, and PWM, LPS mitogens can be used as a measurement of T cell and B cell activity, respectively.
(§5) Briefly, spleen mononuclear leukocytes from C57BL-6 mice were incubated in the presence or absence of mitogens with or without tested drugs. After 72 hours or 5 days, ^3 H thymidine incorporation was recorded as an indication of cell transformation and proliferation.
(§6) 100 μl of a suspension of 2×10^6 cells/ml (2×10^5 cells/well) were incubated in presence of PHA or ConA or PWM or LPS at the following concentrations:
(§7) PHA=0.01% final concentration-0.001%
(§8) Cells were incubated in presence or absence of drugs for 72 hours. 0.5 or 1 μCi of tritiated thymidine (^3 H) was added per well the last 18 or 6 hours of incubation respectively. Cells were harvested and counted on a Beta counter.

[4] = system: B cell activity (LPS), spleen mononuclear leukocytes; assay: Mitogenic proliferation on spleen cell suspension, B (LPS); type: cell-based, C57BL-6 mice
Description: as §4, §5, §6, §7, §8

[5] = prior art; cited from earlier work
[6] = at 10^-12 - 10^-6 (M), 4320 min

O=c1[nH]cnc2c1cnn2CCCCCO [ST 689, allopurinol pentanol, reference compound]
CTL activity, % increase compared to IL2 (100%) ([1]; at 10^-7 M, preliminary result): ++++ (80+)
MLR ([2]; at 10^-5 M, preliminary result, 10 µM): 1.6 ×
immunomodulating activity (immune system): not significantly more immunostimulatory than ST 789

Nc1ncnc2c1ncn2CCCCCO [Compound #5a, N-(6-Aminopurin-9-Yl) 5-Pentanol]
CTL activity, % increase compared to IL2 (100%) ([1]; at 10^-7 - 10^-5 M): ++ (40-60%)
MLR ([2]; at 10^-9 - 10^-6 M, 7200 min): 1.5 - 2 ×

CSc1ncnc2c1ncn2CCCCCO [Compound #60, N-(6,-N-Methylthiopurin-9-yl)-pentanol]
activation at 0.1 µM ([1]; at 10^-7 M): 20 to 40%
MLR ([2]; at 10^-9 - 10^-5 M): 1.7 - 2 ×

OCCCCCn1cnc2c(S)ncnc21 [Compound #59, N-(6-Mercaptopurin-9-yl)-pentanol]
activation at 0.001 µM [1]: 40 to 60%
MLR ([2]; at 10^-9 - 10^-5 M): 2 - 2.4 ×

N=C(N)NCCC[C@@H](NC(=O)OCCCCCn1cnc2cncnc21)C(=O)O [Compound #20, N-9-purinyl-7-pentyloxycarbonyl-D-arginine]
activation at 10 µM [1]: 40 to 60%

CN(C)c1ncnc2c1ncn2CCCCCO [Compound #V, N-(6-N,N-Dimethylaminopurin-9-yl)-pentanol]
activation at 0.1 µM ([1]; at 10^-7 M): 60 to 80%
MLR ([2]; at 10^7 - 10^5 M (so in the source)): 1.5 - 2 ×

N=C(N)NCCC[C@H](NC(=O)OCCCCCn1cnc2c(N)ncnc21)C(=O)O [Compound #6, Aminopurinyl Pentoxycarbonyl L-Arginine]
activation at 0.001 µM [1]: 60 to 80%
MLR ([2]; at 10^-9 - 10^-5 M): 1.5 - 3 ×

N=C(N)NCCC[C@@H](NC(=O)OCCCCCn1cnc2c(=O)[nH]cnc21)C(=O)O [Compound #11, Hydroxypurinyl Pentoxycarbonyl D-Arginine]
activation at 0.1 µM ([1]; at 10^-7 M): 40 to 60%
MLR ([2]; at 10^-7 - 10^-5 M): 2 - 2.5 ×

CN(C)c1ncnc2c1ncn2CCCCCOC(=O)N[C@@H](CCCNC(=N)N)C(=O)O [Compound #2, N,N-Dimethylaminopurinyl Pentoxycarbonyl L-Arginine]
T (ConA) mitogenic proliferation ([3]; at 10^-8 - 10^-5 (M), 4320 min): 2 - 4 ×
B (LPS) mitogenic proliferation ([4]; concentration not given): 0
CTL activity, % increase compared to IL2 (100%) ([1]; concentration not given): 0 (less than 20%)
MLR ([2]; at 10^-7 - 10^-5 M): 1.5 - 2 ×

Oc1ncnc2[nH]ncc12 [allopurinol]
immunomodulating activity (immune system): immunosuppressive

NNc1ncnc2c1ncn2CCCCCO [Compound #7a, N-(6-Hydrazinopurin-9-yl) 5-Pentanol]
activation at 0.001 µM ([1]; preliminary result): > 80%
MLR ([2]; at 10^-9 - 10^-5 M, preliminary result): 2 ×

N=C(N)NCCC[C@@H](NC(=O)OCCCCCn1cnc2c(NN)ncnc21)C(=O)O [Compound #7, Hydrazinopurinyl Pentoxycarbonyl D-Arginine]
T (ConA) mitogenic proliferation ([3]; at 10^-12 - 10^-8 (M), 4320 min): 2 - 6 ×
B (LPS) mitogenic proliferation ([4]; concentration not given): 0
activation at 0.001 µM [1]: 60 to 80%
MLR ([2]; at 10^-9 - 10^-6 M, 7200 min): 1.5 - 2 ×

OCCCCCn1cnc2c(Cl)ncnc21 [Compound #III, N-(6-Chloropurin-9-yl)-5-pentanol]
activation at 0.1 µM ([1]; at 10^-7 M): 60 to 80%
MLR ([2]; at 10^-9 - 10^-5 M): 1.5 - 2.5 ×

N=C(N)NCCC[C@H](NC(=O)OCCCCCn1cnc2c(NN)ncnc21)C(=O)O [Compound #8, Hydrazinopurinyl Pentoxycarbonyl L-Arginine]
activation at 0.001 µM [1]: > 80%
MLR ([2]; at 10^-9 - 10^-5 M): 1.5 - 2 ×

N=C(N)NCCC[C@H](NC(=O)OCCCCCn1cnc2c(=O)[nH]cnc21)C(=O)O [ST 789, reference compound]
T (ConA) mitogenic proliferation ([3]; concentration not given): 0
B (LPS) mitogenic proliferation ([4]; at 10^-8 - 10^-5 (M), 4320 min): 1.5 - 3 ×
activation at 0.1 µM ([1]; at 10^-7 M): 40 to 60%
MLR ([2]; at 10^-9 - 10^-5 M): 2 - 3 ×
stimulation of cytotoxic T lymphocytes (CD8+ T cells) (immune system): no indication

N=C(N)NCCC[C@@H](NC(=O)OCCCCCn1cnc2c(Cl)ncnc21)C(=O)O [Compound #9, Chloropurinyl Pentoxycarbonyl D-Arginine]
T (ConA) mitogenic proliferation [3, 6]: 2 - 3.5 ×

CNc1ncnc2c1ncn2CCCCCOC(=O)N[C@H](CCCNC(=N)N)C(=O)O [Compound #3, N-Monomethylaminopurinyl Pentoxycarbonyl D-Arginine]
T (ConA) mitogenic proliferation [3, 6]: 2 - 6 ×
B (LPS) mitogenic proliferation ([4]; at 10^-8 - 10^-6 (M), 4320 min): 2 - 2.5 ×
activation at 10 µM [1]: 20 to 40%
MLR ([2]; at 10^-9 - 10^-5 M): 1.5 ×

N=C(N)NCCC[C@@H](NC(=O)OCCCCCn1cnc2c(N)ncnc21)C(=O)O [Compound #5, Aminopurinyl Pentoxycarbonyl D-Arginine]
activation at 0.1 µM ([1]; at 10^-7 M): 20 to 40%
MLR ([2]; at 10^-7 - 10^-5 M): 1.5 - 2 ×

OCCCCCn1cnc2cncnc21 [Compound #19, N-9-purinyl-5-pentanol]
activation at 0.1 µM ([1]; at 10^-7 M, preliminary result): 40 to 60%
MLR ([2]; concentration not given, preliminary result): 0

COc1ncnc2c1ncn2CCCCCO [Compound #51, N-(6-methoxypurin-9-yl) 5-pentanol]
activation at 0.1 µM ([1]; at 10^-7 M): 40 to 60%
MLR ([2]; at 10^-9 - 10^-6 M, 7200 min): 1.5 - 2 ×

CNc1ncnc2c1ncn2CCCCCO [Compound #3a, N-(6-N-Methyl-Aminopurin-9-yl)-pentanol]
CTL activity, % increase compared to IL2 (100%) ([1]; at 10^-9 - 10^-7 M): +++ (60-80%)
MLR ([2]; at 10^-9 - 10^-5 M): 1.5 - 2.9 ×

isoprinosine
immunomodulating activity (immune system): not an effective immunomodulator
toxicity [5]: very nontoxic
